Measured values as given in paper PMC10331583, “Control of fibrosis with enhanced safety via asymmetric inhibition of prolyl‐tRNA synthetase 1” (EMBO Molecular Medicine, 2023).
Values joined by “and” are separate entries in the source; they are usually repeats but may differ in a detail not shown here. Identical values can stand only once. Like-named read-outs stand apart in the source and are kept apart here.

How the values were obtained:
[1] = tested on: TNT Quick Coupled Transcription/Translation System (luciferase synthesis); type: biochemical
WI‐26 VA4 cells [2] = assay: Collagen ELISA (secreted pro‐collagen I)
Procedure: WI‐26 VA4 cells were seeded at 3.5 × 10^4 cells/well on 24 well plates. After 24 h, the cells were starved of serum for 6 h. Then, the cells were incubated with the indicated concentrations of compounds in the presence of TGF‐β (2 ng/ml) (R&D systems, 240‐B‐002) for 72 h. The supernatant of the cells was collected and centrifuged at 500 g for 5 min to remove cell debris. Then, the level of pro‐collagen I in the supernatant was determined using Human Pro‐collagen I alpha 1 DuoSet ELISA (R&D systems, DY6220‐05) and DuoSet ELISA Ancillary Reagent Kit 2 (R&D systems, DY008) following the manufacturer's instructions.

WI‐26 VA4 cells [3] = assay: CellTiter‐Glo assay (cytotoxicity); details: Homo sapiens; for activity at 0.0001 µM: WI26VA4, read-out: CellTiter-Glo % of control, 0.1 nM; for activity at 0.0003 µM: WI26VA4, read-out: CellTiter-Glo % of control, 0.3 nM
[4] = log(inhibitor) vs. response, variable slope (four parameters), concentration in nM

Structure (SMILES): O=C(C[C@H]1NCCC[C@@H]1O)Cn1cnc2ccc(-c3cccc(F)c3)cc21 [DWN11251]
- TNT-luciferase % of control ([1]; 60 nM, Experiment #1, replicates, 0.06 µM): 107.20 % of control and 104.88 % of control and 105.66 % of control
- TNT-luciferase % of control ([1]; 60 nM, Experiment #2, replicates, 0.06 µM): 114.45 % of control and 123.12 % of control and 122.25 % of control
- TNT-luciferase % of control, average ([1]; 60 nM): 112.93 % of control
- TNT-luciferase % of control ([1]; 200 nM, Experiment #1, replicates, 0.2 µM): 108.74 % of control and 107.20 % of control and 111.83 % of control
- TNT-luciferase % of control ([1]; 200 nM, Experiment #2, replicates, 0.2 µM): 104.91 % of control and 109.25 % of control and 124.86 % of control
- TNT-luciferase % of control, average ([1]; 200 nM): 111.13 % of control
- TNT-luciferase % of control ([1]; 600 nM, Experiment #1, replicates, 0.6 µM): 114.14 % of control and 111.05 % of control and 117.22 % of control
- TNT-luciferase % of control ([1]; 600 nM, Experiment #2, replicates, 0.6 µM): 98.84 % of control (2×) and 100.58 % of control
- TNT-luciferase % of control, average ([1]; 600 nM): 106.78 % of control
- TNT-luciferase % of control ([1]; 2000 nM, Experiment #1, replicates, 2 µM): 91.77 % of control (2×) and 97.94 % of control
- TNT-luciferase % of control ([1]; 2000 nM, Experiment #2, replicates, 2 µM): 83.24 % of control and 92.77 % of control and 96.24 % of control
- TNT-luciferase % of control, average ([1]; 2000 nM): 92.29 % of control
- TNT-luciferase % of control ([1]; 6000 nM, Experiment #1, replicates, 6 µM): 60.77 % of control and 59.00 % of control and 60.23 % of control
- TNT-luciferase % of control ([1]; 6000 nM, Experiment #2, replicates, 6 µM): 57.75 % of control and 61.56 % of control and 58.87 % of control
- TNT-luciferase % of control, average ([1]; 6000 nM): 59.70 % of control
- TNT-luciferase % of control ([1]; 20000 nM, Experiment #1, replicates, 20 µM): 9.64 % of control and 9.49 % of control and 10.87 % of control
- TNT-luciferase % of control ([1]; 20000 nM, Experiment #2, replicates, 20 µM): 9.97 % of control and 10.14 % of control and 11.01 % of control
- TNT-luciferase % of control, average ([1]; 20000 nM): 10.19 % of control
- TNT-luciferase % of control ([1]; 60000 nM, Experiment #1, replicates, 60 µM): 0.32 % of control and 0.35 % of control and 0.31 % of control
- TNT-luciferase % of control ([1]; 60000 nM, Experiment #2, replicates, 60 µM): 0.26 % of control and 0.27 % of control and 0.30 % of control
- TNT-luciferase % of control, average ([1]; 60000 nM): 0.30 % of control
- TNT-luciferase % of control ([1]; 200000 nM, Experiment #1, replicates, 200 µM): 0.0123 % of control and 0.00453 % of control and 0.000979 % of control
- TNT-luciferase % of control ([1]; 200000 nM, Experiment #2, replicates, 200 µM): 0.0176 % of control and 0.0228 % of control and 0.0243 % of control
- TNT-luciferase % of control, average ([1]; 200000 nM): 0.0137 % of control
- TNT-luciferase LogIC50 (best-fit value) [1, 4]: 3.802
- IC50 ([1]; log(inhibitor) vs. response, variable slope (four parameters), unit from head concentration (nM), read-out: TNT-luciferase IC50 (best-fit value)): 6340 nM
- Collagen, % of control (single replicates per experiment) (WI‐26 VA4 cells [2]; 10 nM, 0.01 µM): 112.57 % of control and 103.72 % of control and 109.80 % of control and 111.67 % of control and 110.64 % of control
- Collagen, % of control (single replicates per experiment) (WI‐26 VA4 cells [2]; 100 nM, 0.1 µM): 84.02 % of control and 93.58 % of control and 96.09 % of control and 96.94 % of control and 92.86 % of control
- Collagen, % of control (single replicates per experiment) (WI‐26 VA4 cells [2]; 300 nM, 0.3 µM): 47.78 % of control and 47.63 % of control and 53.20 % of control and 53.43 % of control and 55.58 % of control
- Collagen, % of control (single replicates per experiment) (WI‐26 VA4 cells [2]; 1000 nM, 1 µM): 11.57 % of control and 11.31 % of control and 12.08 % of control and 14.51 % of control and 14.77 % of control
- Collagen, % of control (single replicates per experiment) (WI‐26 VA4 cells [2]; 3000 nM, 3 µM): 3.47 % of control and 2.67 % of control and 3.07 % of control and 3.55 % of control and 4.03 % of control
- Collagen, % of control (single replicates per experiment) (WI‐26 VA4 cells [2]; 10000 nM, 10 µM): 2.75 % of control and 2.12 % of control and 2.44 % of control and 2.49 % of control and 2.64 % of control
- Collagen, % of control (single replicates per experiment) (WI‐26 VA4 cells [2]; 30000 nM, 30 µM): 3.52 % of control
- CC50/collagen IC50 (WI‐26 VA4 cells [2]; Fig 5E): 7.08
- IC50 (WI‐26 VA4 cells [2]; Homo sapiens, WI26VA4, read-out: Collagen IC50 (best-fit value), log(inhibitor) vs. response, variable slope (four parameters) (converted)): 257 nM
- activity at 0.01 µM (WI‐26 VA4 cells [2]; Homo sapiens, WI26VA4, read-out: Collagen, % of control (single replicates per experiment), 10 nM): 112%
- activity at 0.03 µM (WI‐26 VA4 cells [2]; Homo sapiens, WI26VA4, read-out: Collagen, % of control (single replicates per experiment), 30 nM): 109%
- activity at 0.1 µM (WI‐26 VA4 cells [2]; Homo sapiens, WI26VA4, read-out: Collagen, % of control (single replicates per experiment), 100 nM): 81.3%
- activity at 0.3 µM (WI‐26 VA4 cells [2]; Homo sapiens, WI26VA4, read-out: Collagen, % of control (single replicates per experiment), 300 nM): 42.9%
- activity at 1 µM (WI‐26 VA4 cells [2]; Homo sapiens, WI26VA4, read-out: Collagen, % of control (single replicates per experiment), 1000 nM): 10.2%
- activity at 3 µM (WI‐26 VA4 cells [2]; Homo sapiens, WI26VA4, read-out: Collagen, % of control (single replicates per experiment), 3000 nM): 2.81%
- activity at 10 µM (WI‐26 VA4 cells [2]; Homo sapiens, WI26VA4, read-out: Collagen, % of control (single replicates per experiment), 10000 nM): 2.31%
- activity at 30 µM (WI‐26 VA4 cells [2]; Homo sapiens, WI26VA4, read-out: Collagen, % of control (single replicates per experiment), 30000 nM): 2.54%
- activity at 0.01 µM (WI‐26 VA4 cells [2]; Homo sapiens, WI26VA4, read-out: Collagen, % of control, average, 10 nM, average): 110%
- activity at 0.03 µM (WI‐26 VA4 cells [2]; Homo sapiens, WI26VA4, read-out: Collagen, % of control, average, 30 nM, average): 108%
- activity at 0.1 µM (WI‐26 VA4 cells [2]; Homo sapiens, WI26VA4, read-out: Collagen, % of control, average, 100 nM, average): 90.8%
- activity at 0.3 µM (WI‐26 VA4 cells [2]; Homo sapiens, WI26VA4, read-out: Collagen, % of control, average, 300 nM, average): 50.1%
- activity at 1 µM (WI‐26 VA4 cells [2]; Homo sapiens, WI26VA4, read-out: Collagen, % of control, average, 1000 nM, average): 12.4%
- activity at 3 µM (WI‐26 VA4 cells [2]; Homo sapiens, WI26VA4, read-out: Collagen, % of control, average, 3000 nM, average): 3.27%
- activity at 10 µM (WI‐26 VA4 cells [2]; Homo sapiens, WI26VA4, read-out: Collagen, % of control, average, 10000 nM, average): 2.46%
- activity at 30 µM (WI‐26 VA4 cells [2]; Homo sapiens, WI26VA4, read-out: Collagen, % of control, average, 30000 nM, average): 2.88%
- Collagen HillSlope (best-fit value) (WI‐26 VA4 cells [2]; log(inhibitor) vs. response, variable slope (four parameters)): -1.623
- Collagen LogIC50 (best-fit value) (WI‐26 VA4 cells [2]; [4]): 2.409
- Relative (CC50)/(collagen IC50) (WI‐26 VA4 cells [2]; relative to HF, Fig 5E): 2.11
- activity at 0.0001 µM (WI‐26 VA4 cells [3]; Experiment #1, replicates): 92.7%
- activity at 0.0001 µM (WI‐26 VA4 cells [3]; Experiment #2, replicates): 120%
- activity at 0.0003 µM (WI‐26 VA4 cells [3]; Experiment #1, replicates): 111%
- activity at 0.0003 µM (WI‐26 VA4 cells [3]; Experiment #2, replicates): 121%
- activity at 0.001 µM (WI‐26 VA4 cells [3]; WI26VA4, read-out: CellTiter-Glo % of control, 1 nM, Experiment #1, replicates): 105%
